Test results as given in ChEMBL document CHEMBL1255288, “Linezolid resistance in Staphylococcus aureus: gene dosage effect, stability, fitness costs, and cross-resistances” (2008).
≈ marks a conversion by molar mass, not a printed value. Calls of active or inactive are those of the source. No cut-off for these calls is given here.

Tests used:
Staphylococcus aureus [1] = test: Antibacterial activity against Staphylococcus aureus T991 by disc diffusion method; assay type: functional, organism-based
Staphylococcus aureus [2] = test: Antibacterial activity against Staphylococcus aureus T2019 with G2576T mutation in 23S rRNA genes by disc diffusion method; assay type: functional, organism-based
Staphylococcus aureus [3] = test: Antibacterial activity against Staphylococcus aureus T2019 expressing 23S rrn1 G2576T, rrn2 G2576T, rrn3 G2576T, rrn4 G2576T and rrn5 G2576T mutants by Etest method; assay type: functional
Staphylococcus aureus [4] = test: Antibacterial activity against Staphylococcus aureus T1888 expressing 23S rrn 3 G2576T and rrn 5 G2576T mutants by Etest method; assay type: functional
Staphylococcus aureus [5] = test: Antibacterial activity against Staphylococcus aureus T2019/50 expressing 23S rrn1 G2576T, rrn3 G2576T, rrn4 G2576T and rrn5 G2576T mutants by Etest method; assay type: functional
Staphylococcus aureus [6] = test: Antibacterial activity against Staphylococcus aureus T1900 expressing 23S rrn3 G2576T, rrn4 G2576T and rrn5 G2576T mutants by Etest method; assay type: functional
Staphylococcus aureus [7] = test: Antibacterial activity against Staphylococcus aureus T2019 with G2576T mutation in 23S rRNA genes by Etest method; assay type: functional
Staphylococcus aureus [8] = test: Antibacterial activity against Staphylococcus aureus T991 by Etest method; assay type: functional
Staphylococcus aureus [9] = test: Antibacterial activity against Staphylococcus aureus T1910 expressing 23S rrn2 G2576T, rrn3 G2576T, rrn4 G2576T and rrn5 G2576T mutants by Etest method; assay type: functional

Compound	MIC (Staphylococcus aureus [7]) [µg/mL]	MIC (Staphylococcus aureus [8]) [µg/mL]	also measured
O=C(N[C@H](CO)[C@H](O)c1ccc([N+](=O)[O-])cc1)C(Cl)Cl	–	–	Activity (Staphylococcus aureus [1]): Active; MIC (Staphylococcus aureus [2]): inactive
CC(=O)NC[C@H]1CN(c2ccc(N3CCOCC3)c(F)c2)C(=O)O1 [LINEZOLID]	128 (≈ 379 µM)	1 (≈ 2.96 µM)	MIC (Staphylococcus aureus [3]): 128 µg/mL (≈ 379 µM); MIC (Staphylococcus aureus [4]): 8 µg/mL (≈ 23.7 µM); MIC (Staphylococcus aureus [5]): 64 µg/mL (≈ 190 µM); MIC (Staphylococcus aureus [6]): 32 µg/mL (≈ 94.9 µM); MIC (Staphylococcus aureus [9]): 64 µg/mL (≈ 190 µM)
C[C@H]1c2cccc(O)c2C(=O)C2=C(O)[C@]3(O)C(=O)C(C(N)=O)=C(O)[C@@H](N(C)C)[C@@H]3[C@@H](O)[C@@H]21.O [DOXYCYCLINE]	6	6	–
CN(C)c1cc(NC(=O)CNC(C)(C)C)c(O)c2c1C[C@H]1C[C@H]3[C@H](N(C)C)C(O)=C(C(N)=O)C(=O)[C@@]3(O)C(O)=C1C2=O [TIGECYCLINE]	0.75 (≈ 1.28 µM)	1 (≈ 1.71 µM)	–
GENTAMICIN	256	256	–
CCC[C@@H]1C[C@@H](C(=O)N[C@@H]([C@H]2O[C@H](SC)[C@H](O)[C@@H](O)[C@H]2O)[C@H](C)Cl)N(C)C1 [CLINDAMYCIN]	> 256	> 256	–
CC[C@H]1OC(=O)[C@H](C)[C@@H](O[C@H]2C[C@@](C)(OC)[C@@H](O)[C@H](C)O2)[C@H](C)[C@@H](O[C@@H]2O[C@H](C)C[C@H](N(C)C)[C@H]2O)[C@](C)(O)C[C@@H](C)C(=O)[C@H](C)[C@@H](O)[C@]1(C)O [ERYTHROMYCIN]	> 256	> 256	–
CC(=O)O[C@H]1C[C@@]2(C)[C@@H](C[C@@H](O)[C@H]3[C@@]4(C)CC[C@@H](O)[C@@H](C)[C@@H]4CC[C@@]32C)/C1=C(\CCC=C(C)C)C(=O)O [FUSIDIC ACID]	0.5 (≈ 0.968 µM)	0.19 (≈ 0.368 µM)	–
